Columns and labels:
BRD4-1 = BRD4-1 (Homo sapiens (Human), UniProt O60885); assay: BRD4 region 1 (BRD4-1) inhibition; assay type: biochemical
BRD4-2 = BRD4-2 (Homo sapiens (Human), UniProt O60885); assay: BRD4 region 2 (BRD4-2) inhibition; assay type: biochemical
PI3Kβ = PI3Kβ (Homo sapiens (Human), UniProt P42338); assay: PI3K beta isoform inhibition; assay type: biochemical
PI3Kδ = PI3Kδ (Homo sapiens (Human), UniProt O00329); assay: PI3K delta isoform inhibition; assay type: biochemical
From the text: Inhibitory activity can be determined routinely using known methods and also front commercial vendors offering this service for kinases and bromodomain proteins. […] In vivo, PI3K inhibition can be determined from target tissue biopsies by standard tissue processing to disrupt cells and then performing Western Blot analysis to determine the presence or absence of pAKT (substrate of PI3K) relative to a control sample. The activity of a compound of the invention as an inhibitor of a bromodomain-containing protein, such as a BET protein, such as BRD2, BRD3, BRD4, and/or BRDT, or an isoform or mutant thereof may be determined in vitro, in vivo, or in a cell line. In vitro assays include assays that determine inhibition of bromodomain-containing proteins. Alternatively, inhibitor binding may be determined by running a competition experiment where a provided compound is incubated with a bromodomain-containing protein, such as a BET protein bound to known ligands, labeled or unlabeled. For example, bromodomain inhibition can be determined in vitro using Alpha Screen Technology (http://www.reactionbiology.com/webapps/site/NewsPDFs/Bromodomain%20Assay%20Platform%20for%20Drug%/20Screening%20and%20Discovery.pdf). In vivo bromodomain inhibition can be determined indirectly by evaluating the amount of protect present of proteins whose genes' transcription is influenced or controlled by the bromodomain protein, for example, the MYCN protein transcription is controlled by BRD4 (J. E. Delmore et al., Cell 2011, 146, 904-917; A. Puissant, Cancer Discov. 2013, 3, 308-323). Bromodomain inhibition may also be predicted by in silico modeling as described below in the Examples.
(§1) Several TP Scaffold compounds (structures shown in FIG. 2 and Table 3) were tested for inhibition activity against isoforms of PI3K (alpha, beta, gamma, and delta isoforms) and the bromodomain protein BRD4 at regions 1 (BRD4-1) and 2 (BRD4-2).

PI3Kγ = PI3Kγ (Homo sapiens (Human), UniProt P48736); assay: PI3K gamma isoform inhibition; assay type: biochemical
Chain of PI3Kγ (P48736 whole entry, canonical isoform): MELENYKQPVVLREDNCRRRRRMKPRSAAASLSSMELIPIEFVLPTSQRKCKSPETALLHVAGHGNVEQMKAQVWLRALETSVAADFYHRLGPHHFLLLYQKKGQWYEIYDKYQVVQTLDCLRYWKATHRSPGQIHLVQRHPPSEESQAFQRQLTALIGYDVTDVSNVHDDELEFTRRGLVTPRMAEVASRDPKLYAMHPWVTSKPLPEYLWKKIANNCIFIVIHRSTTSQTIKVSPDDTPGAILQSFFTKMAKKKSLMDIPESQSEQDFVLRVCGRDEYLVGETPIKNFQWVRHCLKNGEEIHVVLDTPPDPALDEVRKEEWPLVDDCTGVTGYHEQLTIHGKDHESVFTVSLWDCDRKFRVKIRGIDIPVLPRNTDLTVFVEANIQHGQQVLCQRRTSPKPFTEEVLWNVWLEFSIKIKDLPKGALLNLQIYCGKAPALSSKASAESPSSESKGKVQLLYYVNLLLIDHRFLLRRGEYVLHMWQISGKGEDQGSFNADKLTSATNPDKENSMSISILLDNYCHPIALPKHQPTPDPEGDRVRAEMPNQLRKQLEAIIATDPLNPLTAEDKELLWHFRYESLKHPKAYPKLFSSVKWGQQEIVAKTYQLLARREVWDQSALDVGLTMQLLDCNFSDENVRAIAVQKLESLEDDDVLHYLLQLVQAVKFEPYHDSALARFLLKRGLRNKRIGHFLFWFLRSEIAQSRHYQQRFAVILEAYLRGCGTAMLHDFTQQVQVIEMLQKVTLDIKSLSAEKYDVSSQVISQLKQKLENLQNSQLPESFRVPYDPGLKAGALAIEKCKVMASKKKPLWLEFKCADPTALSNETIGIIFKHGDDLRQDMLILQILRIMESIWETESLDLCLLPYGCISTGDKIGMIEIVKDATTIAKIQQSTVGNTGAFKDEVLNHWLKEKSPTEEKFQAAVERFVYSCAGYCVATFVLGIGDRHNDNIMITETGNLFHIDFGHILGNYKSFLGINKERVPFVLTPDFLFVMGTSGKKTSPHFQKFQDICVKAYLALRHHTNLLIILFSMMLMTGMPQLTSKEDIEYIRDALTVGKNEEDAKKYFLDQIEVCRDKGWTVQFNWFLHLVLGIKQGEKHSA

BRD4 = BRD4 (Homo sapiens, UniProt O60885); assay: BRD4 inhibition assay (region not distinguished); assay type: biochemical; settings: BRD4 regions 1 and 2
SKNBE (2) cells = assay: Western blot of p-AKT and N-MYC in SKNBE(2) cells; assay type: cell-based, human; settings: 24 hrs treatment, IGF stimulated
Procedure: Cells were stimulated with 50 ng/ml IGF for 30 min and used for lysate preparation. Proteins were quantitated by the BCA protein assay (Pierce). Equal amounts of protein were resolved by polyacrylamide gels, transferred to nitrocellulose membrane and probed by Western blot with the following primary antibodies: p-AKT(Ser473), API (Cell Signaling Technologies), N-MYC, CyclinD1 and β-actin (Santa Cruz Biotechnology).

[1] = test system: MYCN amplified SKNBE(2) cells; assay: Brd4 chromatin precipitation, quantitative PCR of MYCN promoter region; assay type: cell-based, human; settings: 24 hours exposure
Procedure: MYCN amplified SKNBE(2) cells were exposed to inhibitors for 24 hours then chromatin was precipitated with Brd4 (rabbit polyclonal antibody) along with rabbit IgG as a negative control (IgG). Precipitated chromatin was analyzed for the MYCN gene (2 sites within the MYCN promoter region) by quantitative PCR and enrichment is shown as the percentage of total input DNA (FIG. 4). The negative control region primers amplify within a gene desert region approximately 1 Mb away from MYCN (MYC-N NR). Error bars represent ±SEM of triplicate data. P<0.05 as compared to positive control (paired t-test). Positive control: No inhibitor; IP with BRD4 antibody, Negative Control: No inhibitor, IP with rabbit IgG.

Panc02 = assay: Orthotopic pancreatic model of spontaneous metastasis; assay type: in vivo, WT mice; settings: 50 mg/kg, three times a week
Procedure: Panc02 (1×10^6) tumor cells were injected into the pancreas of WT mice (n=18). After 20 days, mice were randomized into two groups. One group was treated with DMSO (control) and the other group was treated with 50 mg/kg of SF2523, three tunes a week. Tumors were removed 35 days after tumor implantation. Values are mean±SEM (n=8 in each gp; P<0.01; pair wise two-sided Student's t test). […] Values are mean±SEM (n=7; P<0.01; pair wise two-sided. Student's t test). The data are representative of three independent experiments performed.

IMR32 cell line = assay: Real-time PCR of N-myc and Cyclin D1 mRNA; assay type: cell-based; settings: 5 μM, 24 hrs
Procedure: Cells were stimulated with 50 ng/ml IGF and used for RNA Isolation after 24 hrs of treatment with various inhibitors. The results for N-Myc are shown in FIG. 7A and for Cyclin D1 in FIG. 7B.
The experiment of Example 7 was repeated in the IMR32 cell line (MYCN amplified neuroblastoma cancer cell line).

B16 melanoma cells = assay: Mouse model of melanoma metastasis, B16 F10 luciferase cells by tail vein; assay type: in vivo, WT mice; settings: 50 mg/kg every other day, 15 days
From the text: The luciferase signal was monitored every third day by rejecting luciferin, until the lungs were harvested on day 15 (n=5). […] Lungs extracted from these animals are shown below the luciferase imaged pictures supporting the repression of tumor growth in Cmpd 28-treated mice.

PC3 = assay: Cellular PI3K inhibitory activity, pAKT Ser473 ELISA; assay type: cell-based; settings: Homo sapiens, PC-3; IGF-1 stimulated, pAKT serine 473
Procedure: Biological testing of compounds of Formula I. Representative compounds of the invention were tested for cellular PI3K inhibitory activity (as measured by the most robust marker of pathway activity pAKT) in a prostate cancer cell line (PC3), which is summarized in Table 3. […] After this time period the cells were serum starved for 5 hours followed by application of the test compound. Test compound was added as a DMSO (dimethyl sulfoxide) solution such that the final DMSO concentration in the cell media was less than or equal to 0.2% by volume. After 30 minutes of exposure the growth factor stimulant, human IGF-1 (Pepro Tech, Inc., Rocky Hill, N.J., Cat. #100-11), was added in each well. After 30 minutes of IGF-1 exposure, cells were removed the media and cell lysates were prepared using RIPA Lysis buffer (Upstate, Lake Placid, N.Y., Cat. #20-188), keeping on ice. The pAKT serine 473 level was measured in duplicate samples of the cell lysates using commercially available assays such as the Pathscan® Sandwich ELISA kit for Ser473 pAKT (Cell Signaling, Danvers, Mass. Cat. #7160). A SpectraMax Plus spectrophotometric plate reader (Molecular Devices, Sunnydale, Calif.) was used to measure the optical density signal for pAKT at 450 nm (OD450 nm). The pAKT OD450 nm readings were normalized by total protein amount in the cell lysates determined by standard methods.

NB9464 [2] = assay: NB9464 neuroblastoma tumor growth in nude mice; settings: 50 mg/kg, 3 days a week for 1.5 weeks, intra-peritoneal
From the text: MYCN-overexpressing murine neuroblastoma cells (NB9464) were transplanted into nude mice, grown lot 24 days and randomized into two groups.

PI3Kα = PI3Kα (Homo sapiens (Human), UniProt P42336); assay: PI3K alpha isoform inhibition; assay type: biochemical
Chain of PI3Kα (P42336 whole entry, canonical isoform): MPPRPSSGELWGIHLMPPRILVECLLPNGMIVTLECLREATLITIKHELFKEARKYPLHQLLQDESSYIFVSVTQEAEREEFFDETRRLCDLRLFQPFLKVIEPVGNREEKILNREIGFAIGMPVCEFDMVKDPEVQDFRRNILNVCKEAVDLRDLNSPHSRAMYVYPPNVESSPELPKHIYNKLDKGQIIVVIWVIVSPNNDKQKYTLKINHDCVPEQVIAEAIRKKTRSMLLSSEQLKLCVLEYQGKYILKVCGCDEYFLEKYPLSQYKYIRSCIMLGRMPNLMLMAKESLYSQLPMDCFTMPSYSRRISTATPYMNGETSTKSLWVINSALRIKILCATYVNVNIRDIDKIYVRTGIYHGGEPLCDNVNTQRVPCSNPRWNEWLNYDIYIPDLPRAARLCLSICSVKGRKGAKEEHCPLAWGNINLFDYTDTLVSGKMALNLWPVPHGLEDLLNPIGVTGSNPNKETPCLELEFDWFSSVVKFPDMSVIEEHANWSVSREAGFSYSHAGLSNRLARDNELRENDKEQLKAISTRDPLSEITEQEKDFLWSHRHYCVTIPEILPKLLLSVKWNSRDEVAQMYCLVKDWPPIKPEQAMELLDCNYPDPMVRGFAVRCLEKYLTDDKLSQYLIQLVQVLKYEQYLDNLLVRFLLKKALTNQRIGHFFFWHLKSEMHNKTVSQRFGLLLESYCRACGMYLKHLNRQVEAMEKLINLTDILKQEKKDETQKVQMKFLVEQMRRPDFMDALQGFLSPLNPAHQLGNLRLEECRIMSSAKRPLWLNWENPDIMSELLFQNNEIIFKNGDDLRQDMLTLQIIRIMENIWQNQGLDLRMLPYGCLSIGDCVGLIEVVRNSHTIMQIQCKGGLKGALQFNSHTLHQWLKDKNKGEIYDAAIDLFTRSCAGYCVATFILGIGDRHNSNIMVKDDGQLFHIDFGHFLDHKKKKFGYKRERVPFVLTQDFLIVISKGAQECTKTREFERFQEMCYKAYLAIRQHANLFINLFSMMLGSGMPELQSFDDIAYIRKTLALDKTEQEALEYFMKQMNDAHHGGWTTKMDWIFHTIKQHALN
Chain of PI3Kα (P27986 whole entry partner, canonical isoform): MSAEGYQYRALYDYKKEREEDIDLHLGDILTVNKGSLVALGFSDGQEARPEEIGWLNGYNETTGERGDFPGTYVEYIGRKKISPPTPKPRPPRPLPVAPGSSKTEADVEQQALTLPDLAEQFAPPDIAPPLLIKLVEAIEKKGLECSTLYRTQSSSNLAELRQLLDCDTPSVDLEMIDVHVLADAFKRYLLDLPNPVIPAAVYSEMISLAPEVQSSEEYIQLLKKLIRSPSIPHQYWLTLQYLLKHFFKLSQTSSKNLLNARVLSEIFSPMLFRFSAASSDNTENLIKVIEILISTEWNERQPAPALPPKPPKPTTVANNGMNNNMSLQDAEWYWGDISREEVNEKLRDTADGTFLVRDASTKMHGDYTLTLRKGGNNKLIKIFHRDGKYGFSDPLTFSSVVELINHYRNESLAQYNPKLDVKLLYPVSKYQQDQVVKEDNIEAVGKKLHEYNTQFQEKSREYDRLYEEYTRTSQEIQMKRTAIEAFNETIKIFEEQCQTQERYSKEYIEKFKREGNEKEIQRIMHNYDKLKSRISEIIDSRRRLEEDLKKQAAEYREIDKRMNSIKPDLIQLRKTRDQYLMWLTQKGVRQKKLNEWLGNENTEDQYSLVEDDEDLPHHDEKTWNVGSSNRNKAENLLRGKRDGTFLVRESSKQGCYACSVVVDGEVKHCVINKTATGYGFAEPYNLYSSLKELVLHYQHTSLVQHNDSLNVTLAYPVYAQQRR

SKNBE(2) = assay: Cytotoxicity / proliferation study, alone and in combination; assay type: cell-based, human
NB9464 [3] = assay: as above; assay type: cell-based, murine
[4] = test system: MYCN-dependent MB patient derived xenograft (PDX) cell line; assay: as above; assay type: cell-based
PI3K = PI3K inhibition (isoform not distinguished); assay type: biochemical
Procedure: as §1
All thienopyranone-based compounds tested inhibited either PI3K or BRD4 or both PI3K and BRD4. […] JQ1+, a known bromodomain inhibitor, was used as reference compound.

Chain of PI3Kδ (O00329 whole entry, canonical isoform): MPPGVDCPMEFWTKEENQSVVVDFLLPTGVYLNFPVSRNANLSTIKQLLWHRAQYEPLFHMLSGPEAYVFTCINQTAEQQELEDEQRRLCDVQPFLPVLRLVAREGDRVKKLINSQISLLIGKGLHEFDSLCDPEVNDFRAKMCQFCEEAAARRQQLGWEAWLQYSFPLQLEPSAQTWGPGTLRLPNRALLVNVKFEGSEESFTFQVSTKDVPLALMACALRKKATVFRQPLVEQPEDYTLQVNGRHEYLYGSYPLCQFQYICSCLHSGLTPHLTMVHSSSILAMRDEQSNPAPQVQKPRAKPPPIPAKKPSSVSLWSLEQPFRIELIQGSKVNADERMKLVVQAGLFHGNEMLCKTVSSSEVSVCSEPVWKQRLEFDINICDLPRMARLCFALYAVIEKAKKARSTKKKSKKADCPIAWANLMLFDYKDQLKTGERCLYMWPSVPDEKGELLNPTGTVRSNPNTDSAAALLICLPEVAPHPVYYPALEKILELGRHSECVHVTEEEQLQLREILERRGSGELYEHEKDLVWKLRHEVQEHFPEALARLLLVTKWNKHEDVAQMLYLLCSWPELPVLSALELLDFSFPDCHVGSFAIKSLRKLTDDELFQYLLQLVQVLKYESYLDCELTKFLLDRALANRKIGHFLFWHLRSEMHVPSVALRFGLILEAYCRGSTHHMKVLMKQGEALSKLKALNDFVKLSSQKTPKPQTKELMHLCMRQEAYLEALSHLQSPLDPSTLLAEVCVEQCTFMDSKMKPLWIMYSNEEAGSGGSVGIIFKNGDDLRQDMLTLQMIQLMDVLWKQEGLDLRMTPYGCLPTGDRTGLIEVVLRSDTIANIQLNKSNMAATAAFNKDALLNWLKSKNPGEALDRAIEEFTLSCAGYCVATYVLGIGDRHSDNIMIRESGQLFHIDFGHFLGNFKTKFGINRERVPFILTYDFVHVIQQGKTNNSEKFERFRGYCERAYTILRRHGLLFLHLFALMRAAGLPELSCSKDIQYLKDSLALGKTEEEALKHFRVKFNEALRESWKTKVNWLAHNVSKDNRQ
Chain of PI3Kδ (P27986 whole entry partner, canonical isoform): as the sequence (P27986 whole entry partner, canonical isoform) above
Chain of PI3Kβ (P42338 whole entry, canonical isoform): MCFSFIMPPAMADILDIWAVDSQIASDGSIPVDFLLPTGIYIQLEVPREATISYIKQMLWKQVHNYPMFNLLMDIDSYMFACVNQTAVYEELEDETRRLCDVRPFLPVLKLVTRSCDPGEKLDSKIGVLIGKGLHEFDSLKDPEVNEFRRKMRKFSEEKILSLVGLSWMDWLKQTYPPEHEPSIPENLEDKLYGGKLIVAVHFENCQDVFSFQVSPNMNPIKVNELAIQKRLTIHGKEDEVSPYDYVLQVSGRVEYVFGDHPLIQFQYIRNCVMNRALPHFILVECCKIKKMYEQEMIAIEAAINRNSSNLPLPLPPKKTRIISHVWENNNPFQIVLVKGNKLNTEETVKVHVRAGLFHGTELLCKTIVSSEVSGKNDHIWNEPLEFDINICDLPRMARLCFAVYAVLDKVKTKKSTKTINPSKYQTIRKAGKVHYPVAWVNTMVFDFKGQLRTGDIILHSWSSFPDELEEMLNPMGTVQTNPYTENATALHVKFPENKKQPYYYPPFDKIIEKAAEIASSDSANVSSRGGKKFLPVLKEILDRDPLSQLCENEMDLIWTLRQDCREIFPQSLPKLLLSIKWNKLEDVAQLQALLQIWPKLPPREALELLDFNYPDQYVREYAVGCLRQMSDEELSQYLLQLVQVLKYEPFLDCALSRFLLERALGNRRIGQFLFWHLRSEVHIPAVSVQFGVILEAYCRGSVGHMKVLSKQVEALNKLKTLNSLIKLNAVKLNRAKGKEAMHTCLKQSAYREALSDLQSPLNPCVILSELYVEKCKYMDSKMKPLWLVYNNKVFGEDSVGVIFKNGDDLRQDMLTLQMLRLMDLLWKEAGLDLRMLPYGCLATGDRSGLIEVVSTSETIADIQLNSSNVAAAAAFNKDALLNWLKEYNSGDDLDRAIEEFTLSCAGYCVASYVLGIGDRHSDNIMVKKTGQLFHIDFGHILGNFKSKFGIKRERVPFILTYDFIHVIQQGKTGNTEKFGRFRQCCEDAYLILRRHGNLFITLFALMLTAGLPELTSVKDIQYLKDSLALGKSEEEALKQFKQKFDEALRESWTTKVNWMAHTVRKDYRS
Chain of PI3Kβ (P27986 whole entry partner, canonical isoform): as the sequence (P27986 whole entry partner, canonical isoform) above

`O=c1cc(N2CCOCC2)oc2c(-c3ccc4c(c3)OCCO4)csc12` [Cmpd 28] was tested, and the IC50 (BRD4-1) was 241 nM, the IC50 (BRD4-2) was 1550 nM and the IC50 (PI3Kβ) was 214 nM. The IC50 (PI3Kδ) was 960 nM, the IC50 (PI3Kγ) was 158 nM and the “BRD4 inhibition” value (BRD4) was “showed activity”. For the same molecule, the “MYCN protein quantity, Western blot” value (SKNBE (2) cells) was “decreased”, the “pAKT, Western blot” value (SKNBE (2) cells) was “decreased” and the “MYCN expression (Brd4 ChIP, MYCN promoter)” value [1] was “significantly repressed MYCN expression”. The spontaneous metastasis (Panc02) was “blocks spontaneous metastasis”, the “Cyclin D1 mRNA expression” value (IMR32 cell line) was “reducing mRNA expression” and the “MYCN mRNA expression” value (IMR32 cell line) was “inhibits MYCN expression”. For the same molecule, the “luciferase bioimaging of cancer cells” value (B16 melanoma cells) was “little evidence of the presence of cancer cells”, the “reduction in metastatic nodules” value (B16 melanoma cells) was 60% and the IC50 (PC3) was 161 to 440 nM. The “tolerability / body weight” value (NB9464 [2]) was “well tolerated (no body weight loss” and the “tumor growth compared to vehicle” value (NB9464 [2]) was “significantly blocked tumor growth”.
`Cc1sc2c(c1C)C(c1ccc(Cl)cc1)=N[C@@H](CC(=O)OC(C)(C)C)c1nnc(C)n1-2` [JQ-1] was tested, and the IC50 (PI3Kα) was greater than 50000 nM, the IC50 (PI3Kδ) was greater than 50000 nM and the IC50 (PI3Kγ) was greater than 50000 nM. It also gave an IC50 (SKNBE(2)) of 1900 nM, an IC50 (NB9464 [3]) of 1600 nM and an IC50 [4] of 2200 nM. The “PI3K inhibition” value (PI3K) was “does not inhibit PI3K”, the “MYCN protein quantity, Western blot” value (SKNBE (2) cells) was “inhibited only MYCN quantities” and the “MYCN expression (Brd4 ChIP, MYCN promoter)” value [1] was “significantly repressed MYCN expression”.

Reference: patent US9505780B2, “Thienopyranones as kinase and epigenetic inhibitors” (SignalRx Pharmaceuticals, Inc., priority 2014, dated 2016)
